13 compounds from US20230234942A1, “COMPOUNDS FOR TREATING HUNTINGTON'S DISEASE” (PTC Therapeutics, Inc., priority 2020, published 2023) can be followed below.

Each structure is given as a SMILES string.

For this assay, the system named is Endogenous Huntingtin Protein. Briefly: Endogenous Huntingtin Protein Assay (ELISA-based MSD electrochemiluminescence). In kind it is cell-based. Particulars: Table 2; MSD plates coated with MW1 (expanded polyglutamine) or MAB2166 capture antibody; "inactive" = result above the detection limit of the assay. Here is the method: Compounds of Formula (I) were tested using the Meso Scale Discovery (MSD) Assay provided in International Application No. PCT/US2016/066042, filed on Dec. 11, 2016 and claiming priority to U.S. Provisional Application 62/265,652 filed on Dec. 10, 2015, the entire contents of which are incorporated herein by reference.
The Endogenous Huntingtin Protein assay used in Biological Example 1 was developed using the ELISA-based MSD electrochemiluminescence assay platform.
Meso Scale Discovery (MSD) 96-well or 384-well plates were coated overnight at 4° C. with MW1 (expanded polyglutamine) or MAB2166 monoclonal antibody (for capture) at a concentration of 1 μg/mL in PBS (30 μL per well). Plates were then washed three times with 300 μL wash buffer (0.05% Tween-20 in PBS) and blocked (100 μL blocking buffer; 5% BSA in PBS) for 4-5 hours at room temperature with rotational shaking and then washed three times with wash buffer.
Samples (25 μL) were transferred to the antibody-coated MSD plate and incubated overnight at 4° C. After removal of the lysates, the plate was washed three times with wash buffer, and 25 μL of #56565 (Cell signaling; rabbit monoclonal) secondary antibody (diluted to 0.25 μg/mL in 0.05% Tween-20 in blocking buffer) was added to each well and incubated with shaking for 1 Hour at room temperature. Following incubation with the secondary antibody, the wells were rinsed with wash buffer after which 25 μL of goat anti-rabbit SULFO TAG secondary detection antibody (required aspect of the MSD system) (diluted to 0.25 μg/mL in 0.05% Tween-20 in blocking buffer) was added to each well and incubated with shaking for 1 hour at room temperature. After rinsing three times with wash buffer, 150 μL of read buffer T with surfactant (MSD) were added to each empty well, and the plate was imaged on a SI 6000 imager (MSD) according to manufacturers' instructions provided for 96- or 384-well plates.
Regarding `CC(C)(C)[C@H]1CN(c2ncc(-c3ccc(-n4nccn4)cc3O)nn2)CCN1` [Cpd 18, 2-{3-[(3S)-3-tert-butylpiperazin-1-yl]-1,2,4-triazin-6-yl}-5-(2H-1,2,3-triazol-2-yl)phenol], the IC50 was determined as 15.1 nM.

In turn, `C[C@@H]1CN(c2ncc(-c3ccc(-c4cn[nH]c4)cc3O)nn2)CCN1` [Cpd 166, 2-{3-[(3R)-3-methylpiperazin-1-yl]-1,2,4-triazin-6-yl}-5-(1H-pyrazol-4-yl)phenol] showed an IC50 of 192 nM.

For the compound `C[C@@H]1CN(c2ncc(-c3ccc(-c4cnc5nn(C)nc5c4)cc3O)nn2)C[C@H](C)N1` [Cpd 197, 2-{3-[(3R,5S)-3,5-dimethylpiperazin-1-yl]-1,2,4-triazin-6-yl}-5-(2-methyl-2H-[1,2,3]triazolo[4,5-b]pyridin-6-yl)phenol], the IC50 is 11.6 nM.

`CC(C)[C@H]1CN(c2ncc(-c3ccc(-c4ccc5nn(C)cc5c4)cc3O)nn2)CCN1` [Cpd 88, 5-(2-methyl-2H-indazol-5-yl)-2-{3-[(3S)-3-(propan-2-yl)piperazin-1-yl]-1,2,4-triazin-6-yl}phenol] showed a 50% inhibitory concentration (IC50) of 6.5 nM.

For the compound `C[C@@H]1CN(c2ncc(-c3ccc(-c4ccc5nc(C(F)(F)F)cn5n4)cc3O)nn2)C[C@H](C)N1` [Cpd 118, 2-{3-[(3R,5S)-3,5-dimethylpiperazin-1-yl]-1,2,4-triazin-6-yl)-5-[2-(trifluoromethyl)imidazo[1,2-b]pyridazin-6-yl]phenol], the “IC50 (nM)” value was “inactive”.

With `Cc1cn2cc(-c3ccc(-c4cnc(N5C[C@@H](C)N[C@@H](C)C5)nn4)c(O)c3)nc(C)c2n1` [Cpd 103, 5-(2,8-dimethylimidazo[1,2-a]pyrazin-6-yl)-2-{3-[(3R,5S)-3,5-dimethylpiperazin-1-yl]-1,2,4-triazin-6-yl}phenol], the IC50 turned out to be 13.4 nM.

`COc1cc(-c2ccc(-c3cnc(N4CCN[C@@H](C(C)C)C4)nn3)c(O)c2)nn2nc(C)nc12` [Cpd 70, 5-(8-methoxy-2-methyl[1,2,4]triazolo[1,5-b]pyridazin-6-yl)-2-{3-[(3S)-3-(propan-2-yl)piperazin-1-yl]-1,2,4-triazin-6-yl}phenol] gave a half-maximal inhibitory concentration (IC50) of 3.8 nM.

In turn, `Cc1nc2n(n1)CCN(c1ccc(-c3cnc(N4CCN[C@@H](C(C)C)C4)nn3)c(O)c1)C2` [Cpd 274, 5-(2-methyl-5,6-dihydro[1,2,4]triazolo[1,5-a]pyrazin-7(8H)-yl)-2-{3-[(3S)-3-(propan-2-yl)piperazin-1-yl]-1,2,4-triazin-6-yl}phenol] registered an IC50 of 291 nM.

Compound `CC(C)[C@H]1CN(c2ncc(-c3ccc(-c4cnsn4)cc3O)nn2)CCN1` [Cpd 265, 2-{3-[(3S)-3-(propan-2-yl)piperazin-1-yl]-1,2,4-triazin-6-yl}-5-(1,2,5-thiadiazol-3-yl)phenol] came in with an IC50 of 292 nM.

Compound `Cc1cn2cc(-c3cnc(-c4cnc(N5CCN(C)CC5)nn4)c(O)c3)cc(C)c2n1` [Cpd 126, 5-(2,8-dimethylimidazo[1,2-a]pyridin-6-yl)-2-[3-(4-methylpiperazin-1-yl)-1,2,4-triazin-6-yl]pyridin-3-ol] had an IC50 of 100 nM.

`[2H]C([2H])([2H])Oc1cc(-c2ccc(-c3cnc(N4CCN[C@@H](CC)C4)nn3)c(O)c2)ncn1` [Cpd 133, 2-{3-[(3S)-3-ethylpiperazin-1-yl]-1,2,4-triazin-6-yl}-5-{6-[(^2H3)methyloxy]pyrimidin-4-yl}phenol] came in with an IC50 of 13 nM.

In the case of `CC(C)(C)[C@H]1CN(c2ncc(-c3ccc(-c4cn5ncnc5cn4)cc3O)nn2)CCN1` [Cpd 129, 2-{3-[(3S)-3-tert-butylpiperazin-1-yl]-1,2,4-triazin-6-yl}-5-([1,2,4]triazolo[1,5-a]pyrazin-6-yl)phenol], the IC50 amounted to 18.6 nM.

In turn, `Cc1cnc(-c2ccc(-c3cnc(N4CCN[C@@H](C5CC5)C4)nn3)c(O)c2)o1` [Cpd 232, 2-{3-[(3S)-3-cyclopropylpiperazin-1-yl]-1,2,4-triazin-6-yl}-5-(5-methyl-1,3-oxazol-2-yl)phenol] had an IC50 of 147 nM.
